The values that follow come from patent publication US11814376B2, “Hepatitis b core protein modulators” (Assembly Biosciences, Inc., priority 2015, dated 2023).

Structures are written as SMILES.

Data set [1] deals with HBV viral load in AD38 cells. In words: Viral load production in AD38 cells, quantitative PCR of the core sequence in supernatant. The settings on record: Hepatitis B virus, 144 h, 10 μM compound, 6 days at 37° C., supernatant qPCR, relative to DMSO control; read-out: AD38 Viral Load (%) (VL with cmpd/VL in DMSO control) at 10 μM. The format is cell-based. For orientation: Quantitative PCR measures a nucleic acid by following its amplification.

A further data set deals with AD38 cells. The data set is described as follows: Viability of AD38 cells (Promega CellTiter-Glo). It is filed as cell-based. The settings on record: 10 μM compound, 6 days, CellTiter-Glo luminescence normalized to DMSO control (100%). Summed up:
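After 6 days of compound exposure at 37° C (compound added as 10× solution in 10% DMSO; 50,000 cells/well, collagen-coated), medium was replaced with tetracycline-free DMEM/F12, 2% FBS, 1% DMSO. CellTiter-Glo luminescence was then recorded and normalized to DMSO-treated wells as 100% viability.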
On the technique in general: ATP-based viability assays read luminescence as a measure of living cells.

Take `CN(C)C1CN(Cc2ccc(-c3ncc(CNC(=O)c4ccc5c(c4)NC(=O)c4ccccc4S5(=O)=O)s3)cc2)C1` [compound 11158]: the activity at 10 µM in data set [1] was determined as 6.4%. In addition, in the data set on AD38 cells, the “AD38 Viability Normalized Result (cmpd/DMSO %) at 10 μM” value came to 100%.
As for `O=C(NCc1cnc(-c2ccc(OCCCN3CCCCC3)cc2)s1)c1ccc2c(c1)NC(=O)c1ccccc1O2` [compound 11160, 11-oxo-N-((2-(4-(3-(piperidin-1-yl)propoxy)phenyl)thiazol-5-yl)methyl)-10, 11-dihydrodibenzo [b, f] [1, 4] oxazepine-8-carboxamide], the activity at 10 µM in data set [1] was 17.7%. Besides, in the data set on AD38 cells, the “AD38 Viability Normalized Result (cmpd/DMSO %) at 10 μM” value is 104%.
Consider `O=C(NCc1cnc(-c2ccc(OCCCN3CCOCC3)cc2)s1)c1ccc2c(c1)NC(=O)c1ccccc1O2` [compound 11161, N-((2-(4-(3-morpholinopropoxy)phenyl)thiazol-5-yl)methyl)-11-oxo-10, 11-dihydrodibenzo [b, f] [1, 4] oxazepine-8-carboxamide], for which the activity at 10 µM in data set [1] stood at 1.7%. The “AD38 Viability Normalized Result (cmpd/DMSO %) at 10 μM” value with AD38 cells was found to be 104%.
`CCN(CC)CCCOc1ccc(-c2ncc(CNC(=O)c3ccc4c(c3)NC(=O)c3ccccc3O4)s2)cc1.Cl` [compound 11162, N-((2-(4-(3-(diethylamino)propoxy)phenyl)thiazol-5-yl)methyl)-11-oxo-10, 11-dihydrodibenzo [b, f] [1, 4] oxazepine-8-carboxamide hydrochloride]: the activity at 10 µM in data set [1] turned out to be 8.7%. In the data set on AD38 cells, the “AD38 Viability Normalized Result (cmpd/DMSO %) at 10 μM” value was 104%.
For the compound `N#CC1(COc2ccc(-c3ncc(CNC(=O)c4ccc5c(c4)NC(=O)c4ccccc4S5(=O)=O)s3)cc2)CCC1` [compound 11182], the activity at 10 µM in data set [1] was found to be 0.7%. In addition, in the data set with AD38 cells, the “AD38 Viability Normalized Result (cmpd/DMSO %) at 10 μM” value amounted to 104%.
